ChEMBL document CHEMBL2331085, “Identification of Tetrahydropyrido[4,3-d]pyrimidine Amides as a New Class of Orally Bioavailable TGR5 Agonists” (ACS Med Chem Lett, 2013)

Key:
[1] = Lipophilicity, log D of the compound by shake-flask method; format: physicochemical; details: octanol/water
[2] = Half life in dog at 1 mg/kg, iv and 3 mg/kg, po; format: ADME, organism-based, Canis lupus familiaris; details: in vivo
[3] = Permeability from apical to basolateral side of MDCK cells expressing MDR1; format: ADME, cell-based, Canis lupus familiaris; details: dog
[4] = Volume of distribution at steady state in dog at 1 mg/kg, iv and 3 mg/kg, po; format: ADME, organism-based, Canis lupus familiaris; details: in vivo, read-out: Vdss
[5] = Permeability from basolateral to apical side of MDCK cells expressing MDR1; format: ADME, cell-based, Canis lupus familiaris; details: dog
[6] = Clearance in dog at 1 mg/kg, iv and 3 mg/kg, po; format: ADME, organism-based, Canis lupus familiaris; details: in vivo
[7] = Oral bioavailability in dog; format: ADME, organism-based, Canis lupus familiaris; details: in vivo

SMILES | logD [1] | further results
CC[C@H]1[C@@H](O)[C@@H]2[C@H](C[C@H](O)[C@]3(C)[C@@H]([C@H](C)C[C@H](C)C(=O)O)CC[C@@H]23)[C@@]2(C)CCC(O)C[C@@H]12 (single isomer, unassigned) | 1.85 | 
CCc1nnn(-c2ccccc2)c1C(=O)N(C)c1ccc(Cl)cc1 | 2.9 | 
Cc1ccc(N(C)C(=O)c2c(-c3ccccc3Cl)noc2C)cc1Cl | 3.9 | 
CCNc1nc2c(c(C(N)=O)n1)CN(C(=O)CCc1ccc(C(C)(F)F)nc1)CC2 | 1.4 | 
COc1ccc2cc(CNCCc3ccc(Br)cc3)c(-c3ccsc3)nc2c1 | 5.1 | 
CCNc1nc2c(c(C(N)=O)n1)CN(C(=O)CCc1ccccc1)CC2 | 1.4 | 
CCNc1nc2c(c(C(N)=O)n1)CN(C(=O)CCc1ccc(C(C)(F)F)cc1)CC2 | 2.2 | 
CCNc1nc2c(c(C(N)=O)n1)CN(C(=O)CCc1ccc(CC)cc1)CC2 | 2.4 | 
CCNc1nc2c(c(C(N)=O)n1)CN(C(=O)CCc1ccc(C(C)C)cc1)CC2 | 3.4 | 

The next lines start with results.

logD [1] | SMILES | further results
1.05 | CCNc1nc2c(c(C(N)=O)n1)CN(C(=O)CCc1ccc(OC)cc1)CC2 | 
3 | CCNc1nc2c(c(C(N)=O)n1)CN(C(=O)CCc1ccc(OC(F)(F)F)cc1)CC2 | half-life [2]: 50.4 min; Papp A→B [3]: 12.4 ×10⁻⁶ cm/s; Vd [4]: 0.43 L/kg; Papp B→A [5]: 19.2 ×10⁻⁶ cm/s; clearance [6]: 8.05 mL/min/kg; bioavailability [7]: 41%
2.9 | CCc1nc2c(c(C(N)=O)n1)CN(C(=O)CCc1ccc(OC(F)(F)F)cc1)CC2 | 
3.3 | NC(=O)c1nc(C2CC2)nc2c1CN(C(=O)CCc1ccc(OC(F)(F)F)cc1)CC2 | 
2.6 | CCNc1nc2c(c(C(N)=O)n1)CN(C(=O)CCc1ccc(CC(F)(F)F)cc1)CC2 | 
3.5 | CCNc1nc2c(c(C(N)=O)n1)CN(C(=O)CCc1ccc(SC(F)(F)F)cc1)CC2 | 
2.9 | CCOc1nc2c(c(C(N)=O)n1)CN(C(=O)CCc1ccc(OC(F)(F)F)cc1)CC2 | 
